{
  "source": "patent US20100221241A1",
  "about": "“C[…] ENVELOPE-BASED IMMUNOGEN THAT SIMU[…] RECEPTOR AND […] SITES” (UNIVERSITY OF MARYLAND BIOTECHNOLOGY INSTITUTE, priority 2005, published 2010)",
  "key": {"[1]": {"system": "trimers (soluble gp120 trimer)", "experiment": "Surface Plasmon Resonance binding to trimers", "design": "species or system HIV", "conditions": "compared with monomeric CD4M9", "description": "Recently, the X-ray crystal structure of free gp120 was solved (1) and along with X-ray tomography images of envelope spikes (3), used to build a computational model of the envelope trimer (1). […] The line between the binding sites is a “ruler” divided into 1 nm units, which was used to estimate distances between binding sites."}, "HIV": {"system": "HIV", "conditions": "compared with monomeric CD4M9; used with surface HIV virion; cited from earlier work"}},
  "note": "No end group written: not given here.",
  "data": [
    {"substance": "bi-CD4M9-MS: bivalent polypeptide containing two CD4M9 moieties separated by polyethylene glycol linker placing the binding residues 5.2 nm apart (CNLATCQLTCKSLGLLGKCAGSFCACGP; cysteine pairing not given here; also: bivalent: two CD4M9 moieties joined by a polyethylene glycol linker)", "values": [
      {"measurement": "forward rate constant for binding", "setting": "[1]", "result": "significantly different from monomeric CD4M9"},
      {"measurement": "HIV inhibition", "setting": "HIV", "result": "more potent HIV inhibition than monomeric CD4M9"}
    ]}
  ]
}
